One data set relates to MDA-MB-435 (HER2+). The experiment in a line: Targeted toxicity, cell survival by MTT assay. The format is cell-based, human. To be noted: Dox 0.5 μM; HerPBK10 0.1 μM; day 3. Here is the method:
(§1) FIG. 7 illustrates targeted toxicity. […] Cell titer was determined by metabolic (i.e. MTT) assay. FIG. 7 upper panel illustrates the effect of HerDox on MDA-MB-231 (HER2−) and MDA-MB-435 (HER2+) cell survival. Relative surviving cell numbers are represented as a % of corresponding untreated cells. […] Relative survival (as % of untreated cells) is shown for Day 3 of treatment.
FIG. 8 illustrates receptor specificity. MDA-MB-435 (HER2+) cells were incubated with free ligand (eHRG) at 10× molar excess of HerDox for one hour at 4° C. Media was aspirated to remove free eHRG and fresh media containing HerDox (0.5 μM) was added to cells. Cell survival was measured by MTT assay and represented as a % of relative untreated cell numbers.
(§2) N=3. […] Bar, about 4 μm. […] (E) compares HerDox and Dox on off-target tissue. […] Green fluorescence in nuclei indicates apoptosis (positive TUNEL stain).
(§3) By three days, HerDox reduced HER2+ cell numbers by over 75% whereas HER2− cell survival was unaffected (FIG. 7). […] These findings emphasize the importance of targeting by showing that the untargeted drug affects nontarget (i.e. HER2−) cells. […] To test receptor targeting, the inventors used free heregulin ligand (Her or eHRG) as a competitive inhibitor. […] As a final in vitro challenge, the inventors tested whether HerDox induces toxicity specifically to HER2+ cells in a mixed culture of HER2+ and HER2− breast cancer cells. To do this, the inventors produced a HER2− cell line tagged with green fluorescent protein (GFP) for cell identification in the mixed culture (FIG. 9-A). […] Altogether, these findings indicate that HerDox has the capacity to preferentially target toxicity to HER2+ cells. […] In serum-containing media, no such loss from HerDox is detectable. […] Co-migration of HerPBK10 bands further verified that the conjugates remained intact in the cell media.
(In general: Tetrazolium assays rely on reduction of a dye to a coloured formazan, in cell work by metabolically active cells.)

The next data set deals with MDA-MB-231 (HER2−). Briefly: Targeted toxicity, cell survival by MTT assay. The format is cell-based, human. As to conditions: 0.5 μM with respect to Dox; HerPBK10 0.1 μM; day 3. Here is the method: as §1, §2, §3
A further data set concerns HER2+ tumors. Briefly: HerDox and Dox biodistribution (Dox fluorescence imaging). As to conditions: tissues harvested ~3 h after injection. From the text:
FIG. 11 (A) depicts imaging of live mice after IV delivery of HerDox. Tumors are indicated by arrows.

Data set [1] deals with HER2+ tumors (MDA-MB-435). Briefly: In vivo tumor toxicity (tumor growth). The arrangement: species or system mouse.
Data set [2] can be described thus: Off-target toxicity in treated mice (weight, heart, liver). Here is the method: Relative cell survival (as % of untreated cells) on day 3 of treatment. (+Her), pre-incubation of MDA-MB-435 cells with receptor-blocking ligand (recombinant heregulin) before receiving HerDox. N=3. […] Tissues were harvested from independently injected mice euthanized at indicated time points after injection and fluorescence intensity/tissue acquired using a multimode imager. […] Bar, about 4 μm. […] Day 0=3 days before tail vein injections (mice received daily injections for 7 days). […] Day 0=3 days before tail vein injections (mice received daily injections for 7 days). […] Micrographs (20× magnification) in (E) also show representative H&E stained specimens of myocardia and immunofluorescent specimens of livers from treated mice. Green fluorescence in nuclei indicates apoptosis (positive TUNEL stain).

The next data set deals with MDA-MB-435 cells. The experiment in a line: Intracellular translocation of HerDox and Dox (microscopy). It is filed as cell-based, human. The method, then: Live (unfixed) cells were imaged by brightfield and fluorescence microscopy.
Live (unfixed) cells were imaged by DIC and confocal fluorescence microscopy.
FIG. 15 illustrates HerDox trafficking in breast cancer cells. Cells incubated with HerDox at 37° C. were fixed at the indicated time points and processed for immunofluorescence using an antibody against HerPBK10. Images were captured using confocal microscopy under fluorescence and brightfield. n, nucleus; Bar, ˜8 microns.

The next data set has as its system JIMT-1 cell line. The experiment in a line: Tumor cell killing in culture, pre-existing resistance. As to conditions: broad concentration range. It is filed as cell-based, human. The method, then:
N=3. *, p<0.05 compared to parental. […] N=3. […] Treatments were compared to mock (saline)-treatment. […] N=3. *, p<0.05 compared to parental. […] N=3.
(§4) The efficacy of HerDox was also examined on a cell line with pre-existing resistance.
(§5) The contribution of HER3 to targeted toxicity was evaluated by assessing whether pre-adsorbing HerDox with a peptide comprising the ligand-binding domain of HER3 blocked cytotoxicity.

The test system of the next data set is JIMT-1 tumors. The experiment in a line: Trastuzumab-resistant tumor growth in vivo. The arrangement: species or system mouse. As to conditions: 0.004 mg Dox/kg/injection, twice-weekly IV. Here is the method: (§6) Tumor volumes were measured by calipers. Day 0 corresponds to first day of treatment. N=10 tumors per treatment.
as §6, §4, §5

For data set [3] the following is noted: T-DM1; untargeted Dox in patients; cited from earlier work.
Another data set concerns the target TSPO (Homo sapiens, UniProt P30536). Briefly: S2Ga binding to recombinant TSPO (ultrafiltration, spectra). As to conditions: 1 μM. Here is the method:
(A) illustrates that S2Ga interacts with TSPO. […] Retentates were evaluated for the presence of protein-bound corrole by measuring the absorbance and fluorescence spectra. Where indicated, PK11195 was used as a competitive inhibitor for the porphyrin binding site on TSPO. (B) further illustrates that S2Ga interacts with TSPO. […] Retentates were evaluated for the presence of protein-bound corrole by measuring the absorbance and fluorescence spectra. Where indicated, PK11195 was used as a competitive inhibitor for the porphyrin binding site on TSPO. […] MDA-MB-435 cells were transfected with a plasmid expressing exogenous TSPO 24 hours before cells were treated with HerGa and examined for HerGa-mediated mitochondrial disruption, evidenced by reduced red fluorescent dye accumulation in mitochondria and accumulated green fluorescence in the cytoplasm.
TSPO translocates porphyrins and other metabolites into mitochondria for processing as well as interacts with components of the mitochondrial permeability transition pore complex, and is critical for cellular homeostasis, as knock-outs of TSPO are embryonic lethal in mice.

A further data set relates to human HER2+ tumor cells. The experiment in a line: HerMn toxicity, crystal violet survival. It is filed as cell-based. As to conditions: 24 hours.
Another data set deals with human HER2− tumor cells. The experiment in a line: HerMn toxicity, crystal violet survival. It is filed as cell-based. To be noted: 24 hours.
For another data set, the system named is SOD1. The source says: An in vitro assay measuring superoxide production from XOD−/+SOD.

The values below come from US9850293B2, “Targeting trastuzumab-resistant HER2+ breast cancer with a HER3-targeting nanoparticle” (priority 2014, dated 2017).

TSPO, sequence (P30536 whole entry): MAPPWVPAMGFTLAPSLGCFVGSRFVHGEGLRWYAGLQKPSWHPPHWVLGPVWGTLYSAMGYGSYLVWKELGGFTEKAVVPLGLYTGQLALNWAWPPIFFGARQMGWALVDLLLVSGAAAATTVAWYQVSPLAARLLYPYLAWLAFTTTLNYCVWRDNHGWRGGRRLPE
Method for human HER2+ tumor cells: (§7) Each cell line received the indicated concentration of HerMn or S2Mn and was assessed for survival 24 hours later via crystal violet (CV) stain. N=3 per conc, from 3 separate experiments.
Method for human HER2− tumor cells: as §7

In the case of `COc1cccc2c1C(=O)c1c(O)c3c(c(O)c1C2=O)C[C@@](O)(C(=O)CO)C[C@@H]3O[C@H]1C[C@H](N)[C@H](O)[C@H](C)O1` [Dox, doxorubicin, reference compound], in the data set with MDA-MB-435 (HER2+), the “effect on HER2+ cell survival” value was “reduced both HER2+ and HER2− cells by the same order of magnitude”. Moreover, the “effect on HER2− cell survival” value with MDA-MB-231 (HER2−) was “reduced both HER2+ and HER2− cells by the same order of magnitude”. Moreover, in the data set with HER2+ tumors, the fluorescence in kidneys result was “detectable fluorescence”; the fluorescence in liver entry is recorded as “detectable fluorescence”; the “fluorescence in other tissues (heart, spleen, lungs, skeletal muscle)” value is “Lower levels of fluorescence were also detectable in the lungs and skeletal muscle”; the fluorescence in tumors result is listed as “detectable fluorescence”. Besides, in data set [1] (0.004 mg/kg with respect to Dox, daily tail vein injections for 7 days), the “effect on tumor growth” value is on record as “slows tumor growth”. The “dose eliciting tumor growth ablation / tumor cell death” value in [1] (mice, dose of Dox) is recorded as “more than 0.04 mg/kg”. Also, in data set [2] (25 days following injections), the heart gross appearance result was “slightly enlarged and dilated”; the “myocardium morphology (histochemistry)” value was “focal degeneration, myofibrillar loss, increased cytosoplasmic vacuolization, and nuclear condensation or dissolution”. For the same compound, in [2] (mouse, in vivo), the “cardiac function (echocardiograms)” value is “modest to marked reductions in stroke volume, cardiac output, and left ventricular internal dimension and volume”. Further, in data set [2] (systemic delivery in vivo), the “liver and heart toxicity” value is “causing liver tissue and myocardial damage”. In the data set with MDA-MB-435 cells (0 min of uptake, 0.5 μM), the “intracellular location of Dox fluorescence” value is “already found inside the cell at the nuclear periphery”. For the same compound, the “intranuclear pattern of Dox in live cells” value in the data set on MDA-MB-435 cells (confocal, live cells) is listed as “accumulates in the cell nucleus”. Moreover, the “response of JIMT-1 cells” value with JIMT-1 cell line is “only partially responsive”. Moreover, in the data set on JIMT-1 tumors, the “effect on JIMT-1 tumor growth” value is “only slight”.
Regarding T-DM1, in data set [3], the therapeutic dose required result is reported as “about 3.6 mg/kg”.
Turning to sulfonated gallium(III) corrole [S2Ga], on TSPO, the “binding to TSPO with PK11195” value was “competitively inhibited by PK11195”. The “binding to TSPO” value at TSPO (~20 min, room temperature) is given as “directly binds”.
As for “sulfonated manganese(III) corrole [S2Mn]”, the “toxicity to HER2+ tumor cells” value in the data set on human HER2+ tumor cells was “no effect on cell survival”. For the same compound, the “toxicity to HER2− tumor cells” value in the data set on human HER2− tumor cells is “no effect on cell survival”.
For “sulfonated non-metallated free-base corrole [S2FB]”, the “inhibition of SOD1” value with SOD1 was “inhibit SOD activity”. For the same compound, the “reduction of SOD activity” value with SOD1 (1 μM) is listed as “about one-third”.
